Measurements from patent US20240108618A1, “KRAS G12C INHIBITOR DOSING REGIMENS” (Eli Lilly and Company, priority 2022, published 2024).
Where “and” joins values, the source holds several entries; their conditions need not be identical. Equal values may be shown once. Entries after “also recorded” stand apart in the source; their conditions may differ. Marks after values point to notes of the source that are not given here.

Key:
H358 lung tumor cells = assay: Anti-tumor growth activity in lung cancer H358 xenograft mouse model; assay type: in vivo
Description: H358 lung tumor cells (10×10^6) are implanted by subcutaneous injection in hind leg of nude female mice (Taconic Biosciences). A total of 4 mice in each group are used for the efficacy study. Treatment is initiated with oral administration (gavage) of the test compound or vehicle (20% Captisol®, 25 mM phosphate, pH 2.0 in 0.2 mL volume) once or twice daily for 28 days when the tumor size reaches approximately 300 mg. Tumor growth and body weight are monitored over time to evaluate efficacy and signs of toxicity.

[1] = NCT04956640 Phase 1a clinical pharmacokinetics, monotherapy
From the text: NCT04956640 includes Phase 1a dose escalation (Part A of NCT04956640, see Table 3) followed by a Phase 1b dose expansion (Parts B to E of NCT04956640, see Table 4). […] Phase 1b dose expansion will include 12 cohorts (See Table 4) to further evaluate safety and clinical activity.

[2] = test system: KRAS G12C-mutant advanced NSCLC; assay: NCT04956640 Phase 1b Cohort B4 (with pembrolizumab) clinical response (BOR, ORR, DCR, DOR, TTR, % change from baseline, treatment duration); assay type: in vivo, human; settings: for Time to response (TTR) 2 to <4 months / Time to response (TTR) <2 months: Phase 1b Cohort B4 responders
Description: The term “BOR” as used herein refers to best overall response based on investigator assessments using RECIST criteria (version 1.1). The minimum duration for BOR of SD is at least 6 weeks after the date of first dose of study drug.
The term “DOR” as used herein refers to duration of response, wherein DOR in months is calculated as the event or censoring date minus the response start date plus 1 day divided by 30.4375.
The term “ORR” as used herein refers to objective response rate, wherein objective response rate is the proportion of patients with BOR of CR or PR. Objective response rate, unconfirmed, is the proportion of patients with BOR of CR, PR, or uPR.
The term “TTR” as used herein refers to time to response, wherein TTR in months is calculated as response start date minus first dose date plus 1 day divided by 30.4375.

[3] = Phase 1b Cohort B4, Total (N = 13)
[4] = Phase 1b Cohort B4, individual patients, starting dose 50 BID, prior KRAS G12Ci Y
[5] = Phase 1b Cohort B4, individual patients, starting dose 100 BID, no prior KRAS G12Ci, listed as compound of Formula I
[6] = Phase 1b Cohort B4, individual patients, starting dose 150 BID, no prior KRAS G12Ci, listed as compound of Formula I
[7] = Phase 1b Cohort B4, individual patients, starting dose 150 BID, prior KRAS G12Ci Y, listed as compound of Formula I
[8] = Phase 1b Cohort B4, starting dose 50 mg BID (N = 1)
[9] = Phase 1b Cohort B4, starting dose 100 mg BID (N = 6)
[10] = Phase 1b Cohort B4, starting dose 150 mg BID (N = 6)
[11] = starting dose 50 mg BID (N = 1)
[12] = starting dose 100 mg BID (N = 6)
[13] = starting dose 150 mg BID (N = 6)

For C=CC(=O)N1CCN2C(=O)c3cc(F)c(-c4ccc(F)c5sc(N)c(C#N)c45)c(Cl)c3OCC[C@H]2C1 (single isomer, unassigned) [Formula I], the “% Regression (Day 12)” value (H358 lung tumor cells; 30 mg/kg PO, BID) was −72.14%, the “% Regression (Day 26)” value (H358 lung tumor cells; 30 mg/kg PO, BID) was −67.68% and the “% tumor regression” value (H358 lung tumor cells; 30 mg/kg twice daily) was −67.68 to −72.14%. The “animal body weight loss” value (H358 lung tumor cells; through the whole study) was “No significant animal body weight loss”, the AUC ([1]; 50 mg BID) was 634 (53%) ng.h/mL and the Cmax ([1]; 50 mg BID) was 144 (45%) ng/ml. The Ctrough-Cmin ([1]; 50 mg BID) was 23.8 (90%)^c ng/mL, the t½ ([1]; 50 mg BID) was 3.03 (41%)^c h and the AUC ([1]; 100 mg BID) was 1475 (77%) ng.h/mL. For the same molecule, the Cmax ([1]; 100 mg BID) was 305 (75%) ng/ml, the Ctrough-Cmin ([1]; 100 mg BID) was 44.9 (73%) ng/mL and the “Ctrough-Cmin compared with TEC90” value ([1]; 100 mg BID) was over 25 ng/mL. The t½ ([1]; 100 mg BID) was 3.01 (33%)^b h, the AUC ([1]; 150 mg BID) was 1795 (47%) ng.h/mL and the Cmax ([1]; 150 mg BID) was 368 (51%) ng/ml. The Ctrough-Cmin ([1]; 150 mg BID) was 54.5 (60%) ng/mL, the “Ctrough-Cmin compared with TEC90” value ([1]; 150 mg BID) was over 25 ng/mL and the t½ ([1]; 150 mg BID) was 3.41 (32%) h. The AUC ([1]; 200 mg BID) was 1372 (59%) ng.h/mL, the Cmax ([1]; 200 mg BID) was 325 (61%) ng/ml and the Ctrough-Cmin ([1]; 200 mg BID) was 40.3 (73%) ng/mL. For the same molecule, the “Ctrough-Cmin compared with TEC90” value ([1]; 200 mg BID) was over 25 ng/mL, the t½ ([1]; 200 mg BID) was 2.35 (58%) h and the “Duration of response (DOR) <6 months” value ([2]; 50 mg BID) was 0 (NE) n (%). For the same molecule, the “Patients with best overall response of CR or PR” value (“Patients” for short) ([2]; 50 mg BID (N = 1)) was 0 (0.0) N′ (%), the “Duration of response (DOR) <6 months” value ([2]; 100 mg BID) was 2 (100.0) n (%) and the “Patients” value ([2]; 100 mg BID (N = 6)) was 2 (33.3) N′ (%). The “Duration of response (DOR) <6 months” value ([2]; 150 mg BID) was 3 (100.0) n (%), the “Patients” value ([2]; 150 mg BID (N = 6)) was 3 (50.0) N′ (%) and the “Best overall response (BOR): Complete Response (CR), %” value (shortened to “Best overall response (BOR) … (CR), %”) [2, 3] was “(0.0) %”. For the same molecule, the “Best overall response (BOR): Not Evaluable (NE), %” value [2, 3] was “(0.0) %”, the “Best overall response (BOR): Partial Response (PR), %” value (shortened to “Best overall response (BOR) … (PR), %”) [2, 3] was “(38.5) %” and the “Best overall response (BOR): Partial Response, pending confirmation and ongoing (uPR), %” value (from here on “Best overall response (BOR) … (uPR), %”) [2, 3] was “(30.8) %”. For the same molecule, the “Best overall response (BOR): Progressive Disease (PD), %” value (“Best overall response (BOR) … (PD), %” below) [2, 3] was “(7.7) %”, the “Best overall response (BOR): Stable Disease (SD), %” value (shortened to “Best overall response … (SD), %”) [2, 3] was “(23.1) %” and the “Disease control rate (CR + PR + IPR + SD), %” value [2, 3] was “(92.3) %”. For the same molecule, the “Objective response rate (CR + PR), %” value [2, 3] was “(38.5) %”, the “Objective response rate, confirmed and unconfirmed (CR + PR + uPR), %” value (“Objective response rate … (CR + PR + uPR), %” below) [2, 3] was “(69.2) %” and the “Patients” value [2, 3] was 5 (38.5) N′ (%). The “Time to response (months), Interquartile range” value (“Time … Interquartile range” below) [2, 3] was 0.07 months, the “Time to response (months), Median” value [2, 3] was 1.38 months and the “% Change from Baseline in Sum of Diameters for all Target Lesions” value (from here on “% Change from Baseline in Sum”) [2, 4] was 1.1%. For the same molecule, the “Time (months) of Progressive Disease” value [2, 4] was 1.1 months, the “% Change from Baseline in Sum” value [2, 5] was 0.0% and −40.9% and −45.1% and −59.4% and −82.8% and the “Best Response” value [2, 5] was “PR Pending; also recorded: PR Confirmed”. For the same molecule, the “Time (months) of Partial Response - Confirmed” value [2, 5] was 1.3 months and 1.1 months, the “Time (months) of Partial Response - Pending Confirmation and Ongoing” value [2, 5] was 1.3 months and 1.4 months and the “% Change from Baseline in Sum” value ([2]; Phase 1b Cohort B4, individual patients, starting dose 100 BID, prior KRAS G12Ci Y) was 0.0%. For the same molecule, the “% Change from Baseline in Sum” value [2, 6] was −29.5% and −38.2% and −49.2% and −57.7%, the “Best Response” value [2, 6] was “PR Pending; also recorded: PR Confirmed” and the “Time (months) of Partial Response - Confirmed” value [2, 6] was 1.4 months (2×) and 3.0 months. For the same molecule, the “Time (months) of Partial Response - Pending Confirmation and Ongoing” value ([2]; Phase 1b Cohort B4, individual patients, starting dose 150 BID, prior KRAS G12Ci Y) was 1.1 months, the “% Change from Baseline in Sum” value [2, 7] was −32.1% and 7.3% and the “Best Response” value [2, 7] was “PR Confirmed”. The “Best overall response (BOR) … (CR), %” value [2, 8] was “(0.0) %”, the “Best overall response (BOR): Not Evaluable (NE), %” value [2, 8] was “(0.0) %” and the “Best overall response (BOR) … (PR), %” value [2, 8] was “(0.0) %”. For the same molecule, the “Best overall response (BOR) … (uPR), %” value [2, 8] was “(0.0) %”, the “Best overall response (BOR) … (PD), %” value [2, 8] was “(100.0) %” and the “Best overall response … (SD), %” value [2, 8] was “(0.0) %”. The “Disease control rate (CR + PR + IPR + SD), %” value [2, 8] was “(0.0) %”, the “Objective response rate (CR + PR), %” value [2, 8] was “(0.0) %” and the “Objective response rate … (CR + PR + uPR), %” value [2, 8] was “(0.0) %”. The “Patients” value [2, 8] was 0 (0.0) N′ (%), the “Best overall response (BOR) … (CR), %” value [2, 9] was “(0.0) %” and the “Best overall response (BOR): Not Evaluable (NE), %” value [2, 9] was “(0.0) %”. The “Best overall response (BOR) … (PR), %” value [2, 9] was “(33.3) %”, the “Best overall response (BOR) … (uPR), %” value [2, 9] was “(33.3) %” and the “Best overall response (BOR) … (PD), %” value [2, 9] was “(0.0) %”. The “Best overall response … (SD), %” value [2, 9] was “(33.3) %”, the “Disease control rate (CR + PR + IPR + SD), %” value [2, 9] was “(100.0) %” and the “Objective response rate (CR + PR), %” value [2, 9] was “(33.3) %”. The “Objective response rate … (CR + PR + uPR), %” value [2, 9] was “(66.7) %”, the “Patients” value [2, 9] was 2 (33.3) N′ (%) and the “Time … Interquartile range” value [2, 9] was 0.26 months. The “Time to response (months), Median” value [2, 9] was 1.22 months, the “Best overall response (BOR) … (CR), %” value [2, 10] was “(0.0) %” and the “Best overall response (BOR): Not Evaluable (NE), %” value [2, 10] was 0.0%. The “Best overall response (BOR) … (PR), %” value [2, 10] was “(50.0) %”, the “Best overall response (BOR) … (uPR), %” value [2, 10] was “(33.3) %” and the “Best overall response (BOR) … (PD), %” value [2, 10] was “(0.0) %”. For the same molecule, the “Best overall response … (SD), %” value [2, 10] was “(16.7) %”, the “Disease control rate (CR + PR + IPR + SD), %” value [2, 10] was “(100.0) %” and the “Objective response rate (CR + PR), %” value [2, 10] was “(50.0) %”. The “Objective response rate … (CR + PR + uPR), %” value [2, 10] was “(83.3) %”, the “Patients” value [2, 10] was 3 (50.0) N′ (%) and the “Time … Interquartile range” value [2, 10] was 1.61 months. The “Time to response (months), Median” value [2, 10] was 1.41 months, the “Time to response (TTR) 2 to <4 months” value ([2]; Total (N = 13)) was 1 (20.0) n (%) and the “Time to response (TTR) <2 months” value ([2]; Total (N = 13)) was 4 (80.0) n (%). The “Time to response (TTR) 2 to <4 months” value [2, 11] was 0 (NE) n (%), the “Time to response (TTR) <2 months” value [2, 11] was 0 (NE) n (%) and the “Time to response (TTR) 2 to <4 months” value [2, 12] was 0 (0.0) n (%). The “Time to response (TTR) <2 months” value [2, 12] was 2 (100.0) n (%), the “Time to response (TTR) 2 to <4 months” value [2, 13] was 1 (33.3) n (%) and the “Time to response (TTR) <2 months” value [2, 13] was 2 (66.7) n (%). For the same molecule, the “Duration of response (DOR) <6 months” value ([2]; Total) was 5 (100.0) n (%), the “Patients” value ([2]; Total (N = 13)) was 5 (38.5) N′ (%) and the “median time to response” value ([2]; human, in vivo) was 1.4 month.
